Measured values published in patent publication US5660613A, “Anaerobic/aerobic decontamination of DDT contaminated soil by repeated anaerobic/aerobic treatments” (Zeneca Corp., priority 1995, dated 1997).

What was measured:
[1] = Fate of radiolabelled DDT in the soil system, aerobic / anaerobic / anaerobic then aerobic incubation (Table 1); conditions: for % DDD (% remaining after tests) / % DDE (% remaining after tests) / % Other (% remaining after tests): from radiolabelled DDT; for % DDT (% remaining after tests): Triton X-100 500 ppm, 80640 min
Source text: This example compares the repeated anaerobic/aerobic sequence treatment method of the present invention with single anaerobic treatment and single aerobic treatment in the degradation of DDT in a soil system.
The soil in this example contains populations of >10^5 cfu/g viable aerobic and anaerobic microbes capable of rendering DDT-type contaminants harmless and being viable under both anaerobic and aerobic conditions. This soil contains DDT (200 ppm), DDD (22 ppm) and DDE (18 ppm).
Six 20 g samples of soil are each mixed with 25 ml of water containing 500 ppm each of cysteine and sulphite reducing agents and 500 ppm of "Triton"-X-100. To these slurries are added 1 ppm of radiolabelled 4,4'-DDT-ring UL C^14 in hexane. Two 20 g samples are incubated anaerobically (in 50-ml polypropylene tubes at 35° C., stationary);two 20 g samples are incubated aerobically (in rotating jars with foam plugs at 35° C., 150 rpm); and two 20 g samples are incubated on a 2 week anaerobic/2 week aerobic cycle for a total of 8 weeks.
Redox potential is monitored. After the aerobic phase redox is greater than +100 mV and after the anaerobic incubation redox potential is less than -200 mV.
The incubation samples are extracted, and the fate of the radiolabelled DDT is determined by thin layer chromatography and autoradiography/densitometry. The experiments are repeated to obtain average results.

[2] = Fate of radiolabelled DDT in the soil system with different surfactants, anaerobic/aerobic sequence (Table 2); conditions: anaerobic/aerobic cycles, 35° C.; for % DDD (% remaining after tests) / % DDE (% remaining after tests) / % Other (% remaining after tests): from radiolabelled DDT; for % DDT (% remaining after tests): 80640 min
Method: The soil to be remediated contains populations of >10^5 cfu/g of viable aerobic and anaerobic microbes capable of rendering DDT-type contaminants harmless and being viable under both anaerobic and aerobic conditions. This soil contains DDT (200 ppm), DDD (22 ppm) and DDE (18 ppm). Six twenty gram samples of soil are added to 50-ml polypropylene tubes with 25 ml of water containing 500 ppm each of cysteine and sulphite reducing agents. This creates a supersaturated anaerobic degradation zone immersed in water. To each slurry sample is added 500 ppm of different surfactants and 1 ppm of radiolabelled 4,4'-DDT ring UL C^14 in hexane.
The tubes are capped and incubated stationary for 2 weeks at 35° C. After 2 weeks the tubes are opened and the contents are each transferred to a foam-capped jar and aerated by rotary incubation (150 rpm), for a further 2 weeks at 35° C. The anaerobic/aerobic cycle is repeated 2 times.
The samples are then extracted and the fate of the radiolabelled DDT is determined by thin layer chromatography and autoradiography/densitometry. The experiments are replicated to obtain average results.

[3] = Pilot scale anaerobic/aerobic cycling of DDT-contaminated soil (immersion), solvent extraction and GC ECD analysis; conditions: after 16 weeks; one month immersed/drained cycles; 22° C. to 28° C.; initial DDT 728, DDD 87, DDE 50 ppm; 161280 min
Method: Three-quarters of a ton of soil that contains DDT (728 ppm), DDD (87 ppm) and DDE (50 ppm) is placed in an enclosed degradation zone box 8 foot by 8 foot by 18 inches. It is alternately immersed in water and drained on one month cycles. Sodium acetate nutrient (500 ppm) is added as required to maintain the COD above 300 mg/L, and a mixture of "Triton" X-100 and "DAWN" nonionic surfactants is added as required to maintain the surface tension in the leachate below 70 dynes/cm. The material is cultivated by hand weekly to aerate the degradation zone and render it aerobic during the drained phase. During the treatment, the temperature ranges from 22° C. to 28° C. The redox potential level in the treatment zone stays below negative 200 mV while immersed in water and above positive 100 mV while drained. While drained the water content of the soil is in the range of 40-100% WHC.
After 16 weeks 72% of the DDT, 31% of the DDD and 54% of the DDE is degraded, as measured by solvent extraction and GC ECD analysis.

[4] = Large scale anaerobic/aerobic repeated sequence, biopile technique; conditions: after 16 weeks of cycling, weekly air on/off, 22° C. to 28° C., initial DDT 728, DDD 87, DDE 50 ppm, 161280 min
Source text: Eight tons of soil containing DDT (728 ppm), DDD (87 ppm) and DDE (50 ppm) is placed in an enclosed degradation zone box 8 foot by 8 foot by 8 feet. The soil is amended with 5% straw nutrient. Water is continuously dripped onto the surface of the soil to supersaturate, and the leachate is collected at the bottom and recycled at a rate of 20 to 100 L/tonne/day. Oxygenation is accomplished by passing air through a mechanical distribution system in the soil at the rate of 44 L/tonne/day, weekly alternating the air on and off. The temperatures of the soil during treatment range from 22° C. to 28° C. The redox potential level in the treatment zone stays below negative 200 mV when aeration is off and above positive 100 mV when aeration is on.
Sodium acetate nutrient is added as required to boost the COD to above 300 mg/L, and maintain population counts above 10^5 cfu/g, of anaerobic and aerobic bacteria; and surfactants (a mixture of "Triton" X-100 and "DAWN") is added as required to maintain surface tension below 70 dynes/cm measured in the leachate, which is recycled.

[5] = Aerobic, 35° C., 150 rpm, 8 weeks
[6] = Anaerobic then Aerobic, 2 week/2 week cycle, total 8 weeks
[7] = Anaerobic, 35° C., stationary, 8 weeks

SMILES: Clc1ccc(C(c2ccc(Cl)cc2)C(Cl)Cl)cc1 [DDD, 1,1,dichloro-2,2-bis(p-chlorophenyl)ethane]
- % DDD (% remaining after tests) [1, 5]: 17%
- % DDD (% remaining after tests) [1, 6]: 60%
- % DDD (% remaining after tests) [1, 7]: 30%
- % DDD (% remaining after tests) ([2]; "Dawn" 500 ppm): 75%
- % DDD (% remaining after tests) ([2]; "Triton" X-100 500 ppm): 40%
- % DDD (% remaining after tests) ([2]; No Surfactant): 15%
- % degraded [3]: 31%
- % degraded [4]: 55%

SMILES: ClC(Cl)=C(c1ccc(Cl)cc1)c1ccc(Cl)cc1 [DDE, 2,2-bis(p-chlorophenyl)1,1-dichloroethylene]
- % DDE (% remaining after tests) [1, 5]: 2%
- % DDE (% remaining after tests) [1, 6]: trace
- % DDE (% remaining after tests) [1, 7]: 0%
- % DDE (% remaining after tests) ([2]; "Dawn" 500 ppm): trace
- % DDE (% remaining after tests) ([2]; "Triton" X-100 500 ppm): trace
- % DDE (% remaining after tests) ([2]; No Surfactant): 0%
- % degraded [3]: 54%
- % degraded [4]: 54%

SMILES: Clc1ccc(C(c2ccc(Cl)cc2)C(Cl)(Cl)Cl)cc1 [DDT, 1,1,1-trichloro-2,2-bis(p-chlorophenyl)ethane]
- % DDT (% remaining after tests) [1, 5]: 80%
- % Other (% remaining after tests) [1, 5]: 1%
- % DDT (% remaining after tests) [1, 6]: 10%
- % Other (% remaining after tests) [1, 6]: 30%
- % DDT (% remaining after tests) [1, 7]: 60%
- % Other (% remaining after tests) [1, 7]: 10%
- % DDT (% remaining after tests) ([2]; "Dawn" 500 ppm): 10%
- % Other (% remaining after tests) ([2]; "Dawn" 500 ppm): 15%
- % DDT (% remaining after tests) ([2]; "Triton" X-100 500 ppm): 0%
- % Other (% remaining after tests) ([2]; "Triton" X-100 500 ppm): 60%
- % DDT (% remaining after tests) ([2]; No Surfactant): 85%
- % Other (% remaining after tests) ([2]; No Surfactant): 0%
- % degraded [3]: 72%
- % degraded [4]: 53%
